Source: patent US9732092B2, “Substituted 2,3,4,5,7,9,13,13a-octahydropyrido[1′,2′:4,5]pyrazino[2,1-b][1,3]OXAZEPINES and methods for treating viral infections” (Gilead Sciences, Inc., priority 2012, dated 2017)

Experiments:
MT4 cells = assay: Cytotoxicity (CC50) in MT4 cells, mock-infected; conditions: read-out: CC50 nM in MT-4; MT4 cells, 5 days, CellTiter-Glo
Procedure: (§1) For the antiviral assay utilizing MT4 cells, 0.4 μL of […] test concentration of 3-fold serially diluted compound in DMSO was added to 40 μL of cell growth medium (RPMI 1640, 10% FBS, 1% penicilline/Streptomycine, 1% L-Glutamine, 1% HEPES) in each well of 384-well assay plates (10 concentrations) in quidruplicate.
(§2) 1 mL aliquots of 2×10^6 MT4 cells are pre-infected for 1 and 3 hours respectively at 37° C. with 25 μL (MT4) or of either cell growth medium (mock-infected) or a fresh 1:250 dilution of an HIV-IIIb concentrated ABI stock (0.004 m.o.i. for MT4 cells). Infected and uninfected cells are diluted in cell growth medium and 35 μL of 2000 (for MT4) cells is added to each well of the assay plates.
(§3) Assay plates were then incubated in a 37° C. incubator. After 5 days of incubation, 25 μL of 2× concentrated CellTiter-GloT Reagent (catalog # G7573, Promega Biosciences, Inc., Madison, Wis.) was added to each well of the assay plate. Cell lysis was carried out by incubating at room temperature for 2-3 minutes, and then chemiluminescence was read using the Envision reader (PerkinElmer).

[1] = Cytotoxicity (CC50) in MT4 cells, mock-infected; conditions: human
Procedure: as §1, §2, §3

[2] = Pharmacokinetic analysis following oral administration to beagle dogs; format: in vivo; conditions: beagle dog, 1 mg/kg
Procedure: Pharmacokinetic analysis was performed on various test compounds following intravenous or oral administration to beagle dogs.
For pharmacokinetic analysis of intravenously administered compounds, the test compounds were formulated in 5% Ethanol, 55% PEG 300, and 40% water at 0.1 mg/mL for IV infusion. For pharmacokinetic analysis of orally administered compounds, the test compounds were formulated as an aqueous suspension in 0.1% Tween 20, 0.5% HPMC LV100 in Di Water at 1 mg/kg.
Each dosing group consisted of 3 male, non-naïve purebred beagle dogs. At dosing, the animals weighed between 10 to 13 kg. The animals were fasted overnight prior to dose administration and up to 4 hr after dosing. For studies of intravenous administration, the test article was administered to the animals by intravenous infusion over 30 min. The rate of infusion was adjusted according to the body weight of each animal to deliver a dose of 0.5 mg/kg. […]
For pharmacokinetic analysis of orally administered compounds, serial venous blood samples (approximately 0.3 mL each) were taken from each animal at time points of 0, 0.25, 0.50, 1.0, 2.0, 4.0, 6.0, 8.0, 12.0 and 24.0 hours after dosing. Blood samples were collected, prepared and analyzed in a similar way to the intranveous studies described above. […]

human PXR (NR1I2) = human PXR (NR1I2) (Homo sapiens (Human), UniProt O75469); assay: Human PXR activation assay (luciferase reporter gene, DPX2 cells); format: cell-based; conditions: relative to maximum fold induction by 10 or 20 μM rifampicin
Chain of human PXR (NR1I2) (O75469 whole entry): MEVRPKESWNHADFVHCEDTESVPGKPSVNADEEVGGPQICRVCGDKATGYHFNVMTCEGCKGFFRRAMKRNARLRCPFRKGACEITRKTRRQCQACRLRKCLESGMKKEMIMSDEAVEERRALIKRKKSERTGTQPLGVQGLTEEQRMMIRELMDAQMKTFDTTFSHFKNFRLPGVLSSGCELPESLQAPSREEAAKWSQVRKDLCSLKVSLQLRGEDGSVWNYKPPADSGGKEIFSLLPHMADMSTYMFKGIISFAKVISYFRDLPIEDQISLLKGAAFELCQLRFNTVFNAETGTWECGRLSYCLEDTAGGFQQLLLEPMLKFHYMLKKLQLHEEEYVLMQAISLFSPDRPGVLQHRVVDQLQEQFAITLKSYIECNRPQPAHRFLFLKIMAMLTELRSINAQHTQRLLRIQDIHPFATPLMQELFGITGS
Procedure: A stably transformed tumor cell line (DPX2) was plated on 96-well microtiter plates. DPX2 cells harbor the human PXR gene (NR1I2) and a luciferase reporter gene linked to two promoters identified in the human CYP3A4 gene, namely XREM and PXRE. […] The number of viable cells was determined and the reporter gene activity was assessed. Positive control: […]

[3] = MT4 cells, mock-infected (uninfected)

Question: With `O=C(NC1(c2ccc(F)cc2F)CCCCC1)c1cn2c(c(O)c1=O)C(=O)N1C(C2)O[C@H]2CC[C@@H]1C2` (stereo partly drawn) [Compound 34, (2S,5R)—N-(1-(2,4-difluorophenyl)cyclohexyl)-8-hydroxy-7,9-dioxo-2,3,4,5,7,9,13,13a-octahydro-2,5-methanopyrido[1′,2′:4, 5]pyrazino[2,1-b][1,3]oxazepine-10-carboxamide] as the compound, how does the CC50 (MT4 cells) read?
Answer: 3580 nM

Question: Which CC50 at 5 days [1, 3] does the source give for `O=C(NCc1c(F)cc(F)cc1F)c1cn2c(c(O)c1=O)C(=O)N1[C@H]3CC[C@H](CC3)[C@H]1C2` [Compound 101, (1R,4R,12aS)-7-hydroxy-6,8-dioxo-N-(2,4,6-trifluorobenzyl)-1,2,3,4,6,8,12,12a-octahydro-1,4-ethanodipyrido[1,2-a:1′,2′-d]pyrazine-9-carboxamide] here?
Answer: 11.6 µM

Question: With `O=C(NCc1c(F)cc(F)cc1F)c1cn2c(c(O)c1=O)C(=O)N1[C@H]3CC[C@H](C3)O[C@@H]1C2` [Compound 42, (2R,5S,13aR)-8-hydroxy-7,9-dioxo-N-(2,4,6-trifluorobenzyl)-2,3,4,5,7,9,13,13a-octahydro-2,5-methanopyrido[1′,2′:4,5]pyrazino[2,1-b][1,3]oxazepine-10-carboxamide] as the compound, how does the “F (%) aqueous suspension” value [2] read?
Answer: 28.0%

Question: Which results are given for `O=C(NCc1c(F)cc(F)cc1F)c1cn2c(c(O)c1=O)C(=O)N1[C@H]3CC[C@H](CC3)[C@@H]1C2` [Compound 102, (1S,4S,12aR)-7-hydroxy-6,8-dioxo-N-(2,4,6-trifluorobenzyl)-1,2,3,4,6,8,12, 12a-octahydro-1,4-ethanodipyrido[1,2-a:1′,2′-d]pyrazine-9-carboxamide]?
Answer: CC50 at 5 days [1, 3]: 12 µM; Emax at 24 h, 15 µM (human PXR (NR1I2)): 123%

Question: For `O=C(NCc1ccc(F)cc1F)c1cn2c(c(O)c1=O)C(=O)N1[C@@H]3COC[C@@H](C3)O[C@H]1C2` (racemic) [50/51, N-(2,4-difluorobenzyl)-9-hydroxy-8,10-dioxo-2,3,5,6,8, 10,14,14a-octahydro-2,6-methanopyrido[1′,2′:4,5]pyrazino[2,1-b][1,6,3]dioxazocine-11-carboxamide], which CC50 at 5 days [1] is on record?
Answer: 37.2 µM
